Holding throughout (assay type): cell-based
One experiment has as its system HT-29. The experiment can be described thus: MTT assay. As to conditions: Homo sapiens; HT-29, 24 h of treatment. The procedure:
(§1) The NCI-60 screening protocol utilizes the sulforhodamine B (SRB) assay following 48 h of compound exposure. […] The MTT assay was performed on eleven cancer cell lines: human breast cancer (MDA-MB-231, MCF-7, HCC 1954), human gastric cancer (AGS), human colorectal adenocarcinoma (HT-29, DLD-1, HCT 116), human neuroblastoma (SH SY5Y), and human leukemia (JURKAT, RMPI 8866, K-562) cell lines. The study was conducted in triplicate at the following seven concentrations: 0.62, 1.25, 2.5, 5, 10, 20, and 40 μM.
(§2) The selected cell lines were seeded into 96-well plates and cultured in accordance with the previously described methodology. Then, the cells were treated with all tested compounds and DOX at concentrations of 0.625, 1.25, 2.5, 5.0, 10.0, 20.0, and 40.0 μM for 24 h. A solution of 3-(4,5-dimethyl-2-thiazolyl)-2,5-diphenyl-2H-tetrazolium bromide (Sigma-Aldrich, St. Louis, MO, USA) in phosphate-buffered saline without calcium and magnesium (Corning, Kennebunk, ME, USA) at a concentration of 5 mg/mL was used to carry out MTT assay. After incubation, 20 μL of the prepared MTT solution was added, and then the cells were incubated at 37 °C for two hours. Afterwards, the cells were lysed using 100 μL of lysing buffer (comprising 25 mM HCl, 2% acetic acid, 3% DMF, and 5% SDS, with a pH of 4.7). The absorbance was determined at a wavelength of 570 nm using an Absorbance 96 microplate reader (Byonoy GmbH, Hamburg, Germany).

The test system of a further experiment is DLD-1. The experiment can be described thus: MTT assay. The settings on record: Homo sapiens; DLD-1, 24 h of treatment. The procedure: as §1, §2
For experiment [1], the system named is MDA-MB-231. The experiment can be described thus: MTT assay. The settings on record: Homo sapiens; MDA-MB-231, 24 h of treatment. The procedure: as §1, §2
A further experiment concerns HCT-116. The experiment can be described thus: MTT assay. As to conditions: Homo sapiens; HCT-116, 24 h of treatment. The procedure: as §1, §2
A further experiment has as its system AGS. The experiment can be described thus: MTT assay. As to conditions: Homo sapiens, 24 h of treatment. The method, then: as §1, §2
A further experiment concerns Jurkat. The experiment can be described thus: MTT assay. As to conditions: Homo sapiens, 24 h of treatment. The procedure: as §1, §2
The test system of another experiment is HCC-1954. The experiment can be described thus: MTT assay. The settings on record: Homo sapiens, HCC1954; HCC-1954, 24 h of treatment. The procedure:
as §1, §2

The test system of experiment [2] is MCF-7. The experiment can be described thus: MTT assay. As to conditions: Homo sapiens, MCF7; MCF-7, 24 h of treatment. The procedure: as §1, §2
For another experiment, the system named is K562. The experiment can be described thus: MTT assay. The settings on record: Homo sapiens; K562, 24 h of treatment. The procedure: as §1, §2
The subject of the next experiment is SH SY5Y. The experiment can be described thus: MTT assay. As to conditions: Homo sapiens, 24 h of treatment. The method, then:
as §1, §2

The subject of another experiment is RPMI 8866. The experiment can be described thus: MTT assay. The settings on record: Homo sapiens; RPMI 8866, 24 h of treatment. The procedure: as §1, §2
Experiment [3] deals with MDA-MB-231. The experiment can be described thus: [3H]-thymidine incorporation assay. As to conditions: Homo sapiens; MDA-MB-231, 24 h of treatment. The procedure:
(§3) Another method of assessing the cytotoxic effects of tested compounds, [^3H]-thymidine incorporation assay, was applied. This method provided the capability to analyze the antiproliferative activity of novel structures on MCF-7 and MDA-MB-231 through their ability to incorporate thymidine into the cells. The acquired results further confirmed the potent activity of the 14b compound as the most prominent structure among the novel compounds (Table 2). The test was carried out in triplicate at concentrations of 5, 15, and 30 μM for the MDA-MB-231 cell line and 1, 5, and 10 μM for the MCF-7 cell line.
(§4) Following the selection of cell lines for further study, the effects of all compounds on cell proliferation were evaluated on MCF-7 and MDA-MB-231 cell lines. Cells were seeded in 24-well plates and cultured as described above. Cells were treated with the compounds at concentrations 1, 5, and 10 μM, and 5, 15, and 30 μM for MCF-7 and MDA-MB-231 cell lines, respectively, for 24 h. Subsequently, 0.5 μCi [^3H]-thymidine was added for 4 h at 37 °C. Then, plates with cells were placed on the ice, the liquid was aspirated, and cells were washed twice with 1mL of 0.05 M Tris-HCl buffer comprising 0.11 M NaCl and precipitated by adding 1 mL per well of 5% trichloroacetic. After precipitation, the cells were dissolved with 1 mL of 0.1 M NaOH with 1% SDS (Sigma-Aldrich, St. Louis, MO, USA) at room temperature (RT). The cell lysates were transferred into scintillation vials containing 2 mL of scintillation fluid (Ultima Gold™ XR, PerkinElmer, MA, USA), and cell-associated radioactivity was measured using a Scintillation Counter 1900 TR, TRI-CARB (Packard, Perkin Elmer, Inc., San Jose, CA, USA). The [^3H]-thymidine uptake was expressed as a percentage of the control value.

Experiment [4] deals with MCF-7. The experiment can be described thus: [3H]-thymidine incorporation assay. The settings on record: Homo sapiens, MCF7; MCF-7, 24 h of treatment. The procedure:
as §3, §4

On to `CCC(C(=O)O)N1C(=O)/C(=C/C=C/c2ccc([N+](=O)[O-])o2)SC1=S` (stereo not shown) [3b, 2-((Z)-5-((E)-3-(5-Nitrofuran-2-yl)allylidene)-4-oxo-2-thioxothiazolidin-3-yl)butanoic acid], for which the IC50 turned out to be 30.4 µM with HT-29; 8.03 µM in the experiment with DLD-1; 18.5 µM in the experiment with MDA-MB-231 [1]; 14.7 µM with HCT-116; 6.53 µM in the experiment with AGS; 14.2 µM in the experiment with Jurkat. Moreover, the IC50 with HCC-1954 stood at 17.6 µM; in the experiment with MCF-7 [2], 7.74 µM; in the experiment with K562, 25.8 µM; in the experiment with SH SY5Y, 28.5 µM; in the experiment on RPMI 8866, 35.2 µM; in the experiment on MDA-MB-231 [3], 2.65 µM. In the experiment with MCF-7 [4], this compound came in with an IC50 of 7.79 µM.

As to `O=C(O)C(Cc1ccc(O)cc1)N1C(=O)/C(=C/C=C/c2ccc([N+](=O)[O-])o2)SC1=S` (stereo not shown) [11b, 3-(4-Hydroxyphenyl)-2-((Z)-5-((E)-3-(5-nitrofuran-2-yl)allylidene)-4-oxo-2-thioxothiazolidin-3-yl)propanoic acid], the IC50 with HT-29 is more than 40 µM; in the experiment with DLD-1, 20.3 µM; in the experiment on MDA-MB-231 [1] it was more than 40 µM; in the experiment on HCT-116, 36.1 µM; with AGS, 30.6 µM; with Jurkat, 17.1 µM. Besides, the IC50 is more than 40 µM with HCC-1954; 33.1 µM with MCF-7 [2]; more than 40 µM with K562; more than 40 µM with SH SY5Y; 27.8 µM in the experiment on RPMI 8866; more than 30 µM in the experiment with MDA-MB-231 [3]. The IC50 with MCF-7 [4] is more than 10 µM.

As for `CC(C)CC(C(=O)O)N1C(=O)/C(=C/C=C/c2ccc([N+](=O)[O-])o2)SC1=S` (stereo not shown) [7b, 4-Methyl-2-((Z)-5-((E)-3-(5-nitrofuran-2-yl)allylidene)-4-oxo-2-thioxothiazolidin-3-yl)pentanoic acid], the IC50 in the experiment with HT-29 was determined as 13.6 µM; in the experiment on DLD-1 it was 7.67 µM; with MDA-MB-231 [1] it was 16.7 µM; in the experiment with HCT-116 it was 7.98 µM; in the experiment on AGS it was 5.55 µM; in the experiment with Jurkat it was 7.72 µM. Also, the IC50 with HCC-1954 turned out to be 6.28 µM; in the experiment with MCF-7 [2], 7.13 µM; in the experiment with K562 it was 18.5 µM; in the experiment on SH SY5Y, 15.6 µM; in the experiment on RPMI 8866 it was 16.8 µM; in the experiment on MDA-MB-231 [3], 2.19 µM. In addition, 6.69 µM corresponded to half-maximal inhibition in the experiment with MCF-7 [4] (IC50).

Consider `O=C(O)C(Cc1ccccc1)N1C(=O)/C(=C/C=C/c2ccc([N+](=O)[O-])o2)SC1=S` (stereo not shown) [10b, 2-((Z)-5-((E)-3-(5-Nitrofuran-2-yl)allylidene)-4-oxo-2-thioxothiazolidin-3-yl)-3-phenylpropanoic acid], for which the IC50 worked out at 28.6 µM in the experiment with HT-29; 9.29 µM with DLD-1; 22.9 µM in the experiment on MDA-MB-231 [1]; 13.5 µM in the experiment on HCT-116; 8.57 µM with AGS; 6.7 µM with Jurkat. Also, the IC50 in the experiment with HCC-1954 is 19.1 µM; in the experiment on MCF-7 [2], 9.23 µM; in the experiment with K562, 25.5 µM; with SH SY5Y, 18.9 µM; in the experiment with RPMI 8866, 16.5 µM; in the experiment with MDA-MB-231 [3], 5.99 µM. The compound also came in with an IC50 with MCF-7 [4] of 7.87 µM.

With `O=C(O)CCCCCCCCCCN1C(=O)/C(=C/C=C/c2ccc([N+](=O)[O-])o2)SC1=S` [15b, 11-((Z)-5-((E)-3-(5-nitrofuran-2-yl)allylidene)-4-oxo-2-thioxothiazolidin-3-yl)undecanoic acid], the IC50 in the experiment with HT-29 was 9.61 µM; in the experiment with DLD-1, 1.76 µM; in the experiment with MDA-MB-231 [1], more than 40 µM; in the experiment on HCT-116, 10.5 µM; with AGS, 1.71 µM; with Jurkat it was 1.41 µM. Further, the IC50 in the experiment on HCC-1954 was 6.23 µM; in the experiment with MCF-7 [2], 4.05 µM; with K562, 15.5 µM; with SH SY5Y, 3.76 µM; in the experiment with RPMI 8866, 11 µM; with MDA-MB-231 [3], more than 30 µM. Also, in the experiment with MCF-7 [4], the IC50 came to 3.13 µM.

Regarding `O=C(O)CN1C(=O)/C(=C/C=C/c2ccc([N+](=O)[O-])o2)SC1=S` [1b, 2-((Z)-5-((E)-3-(5-Nitrofuran-2-yl)allylidene)-4-oxo-2-thioxothiazolidin-3-yl)acetic acid], the IC50 in the experiment on HT-29 was 22.3 µM; in the experiment on DLD-1, 28.8 µM; in the experiment with MDA-MB-231 [1], more than 40 µM; in the experiment on HCT-116 it was more than 40 µM; with AGS it was 36.2 µM; in the experiment with Jurkat, 1.76 µM. Further, the IC50 is 25.3 µM in the experiment on HCC-1954; more than 40 µM with MCF-7 [2]; more than 40 µM in the experiment with K562; more than 40 µM in the experiment on SH SY5Y; more than 40 µM with RPMI 8866; more than 30 µM with MDA-MB-231 [3]. This compound also yielded an IC50 in the experiment with MCF-7 [4] of more than 10 µM.

With `CCC(C)C(C(=O)O)N1C(=O)/C(=C/C=C/c2ccc([N+](=O)[O-])o2)SC1=S` (stereo not shown) [8b, 3-Methyl-2-((Z)-5-((E)-3-(5-nitrofuran-2-yl)allylidene)-4-oxo-2-thioxothiazolidin-3-yl)pentanoic acid], the IC50 in the experiment on HT-29 worked out at 8.04 µM; in the experiment on DLD-1, 3.68 µM; with MDA-MB-231 [1], 8.34 µM; with HCT-116, 4.15 µM; in the experiment on AGS, 3.38 µM; in the experiment on Jurkat it was 3.19 µM. Also, the IC50 with HCC-1954 was 4.9 µM; in the experiment on MCF-7 [2], 2.38 µM; in the experiment on K562, 7.35 µM; with SH SY5Y it was 6.6 µM; in the experiment on RPMI 8866, 14.2 µM; with MDA-MB-231 [3] it was 1.84 µM. The compound further came in with an IC50 in the experiment on MCF-7 [4] of 2.21 µM.

Source of the values: article PMC12655351, “Synthesis and Anticancer Activity Evaluation of New 5-((5-Nitrofuran-2-yl)allylidene)-2-thioxo-4-thiazolidinones” (Pharmaceuticals, 2025).
